Measured values: ChEMBL document CHEMBL3877242, “Synthesis of novel 25-hydroxyprotopanaxadiol derivatives by methylation and methoxycarbonylation using dimethyl carbonate as a environment-friendly reagent and their anti-tumor evaluation” (Bioorg Med Chem Lett, 2016)

Assays:
[1] = Cytotoxicity against human HeLa cells assessed as reduction in cell viability after 48 hrs by MTT assay; format: functional, cell-based
[2] = (§1) Cytotoxicity against human DU145 cells assessed as reduction in cell viability after 48 hrs by MTT assay; format: functional, cell-based; details: DU-145, 48 h
DU-145 [3] = test: as §1; format: functional, cell-based
[4] = Cytotoxicity against human IOSE-144 cells assessed as reduction in cell viability after 48 hrs by MTT assay; format: toxicity, cell-based
[5] = Cytotoxicity against human DU145 cells assessed as viable cells at 30 uM after 48 hrs by MTT assay; format: functional; details: DU-145, 48 h, read-out: GI
[6] = Cytotoxicity against human HeLa cells assessed as cell growth inhibition at 30 uM after 48 hrs by MTT assay; format: functional; details: read-out: GI
DU-145 [7] = test: Potency index, ratio of 5-FU IC50 to compound IC50 for human DU145 cells; format: functional

| Compound | IC50 [1] [µM] | IC50 [2] [µM] | growth inhibition (GI) (DU-145 [3]) | IC50 at 48 h [4] [µM] | inhibition of growth at 30 µM [5] [%] | inhibition of growth at 30 µM [6] [%] | Ratio IC50 (DU-145 [7]) |
| --- | --- | --- | --- | --- | --- | --- | --- |
| CO[C@H]1CC[C@]2(C)[C@H]3C[C@@H](O)[C@@H]4[C@@H]([C@@](C)(CCCC(C)(C)O)OC)CC[C@@]4(C)[C@]3(C)CC[C@H]2C1(C)C | 6.7 | 5.6 | Dose-dependent effect | > 100 | 32.5 | 32.5 |  |
| COC(=O)O[C@H]1CC[C@]2(C)[C@H]3C[C@@H](O)[C@@H]4[C@@H]([C@](C)(O)CCCC(C)(C)OC(=O)OC)CC[C@@]4(C)[C@]3(C)CC[C@H]2C1(C)C | 34.6 | 29.2 | Dose-dependent effect | > 100 |  |  |  |
| CO[C@H]1CC[C@]2(C)[C@H]3C[C@@H](OC)[C@@H]4[C@@H](/C(C)=C/CCC(C)(C)O)CC[C@@]4(C)[C@]3(C)CC[C@H]2C1(C)C | 1.2 | 12.1 | Dose-dependent effect | > 100 |  |  |  |
| COC(C)(C)CCC[C@@](C)(O)[C@H]1CC[C@]2(C)[C@@H]1[C@H](O)C[C@@H]1[C@@]3(C)CC[C@H](O)C(C)(C)[C@@H]3CC[C@]12C | 22.5 | 5.4 |  | > 100 |  |  |  |
| COC(=O)O[C@H]1CC[C@]2(C)[C@H]3C[C@@H](O)[C@@H]4[C@@H]([C@@](C)(CCC=C(C)C)OC)CC[C@@]4(C)[C@]3(C)CC[C@H]2C1(C)C | 30.2 | 41.1 | Dose-dependent effect | > 100 |  |  |  |
| COC(=O)O[C@H]1CC[C@]2(C)[C@H]3C[C@@H](O)[C@@H]4[C@@H]([C@](C)(O)CCC=C(C)C)CC[C@@]4(C)[C@]3(C)CC[C@H]2C1(C)C | 10.4 | 1.2 | Dose-dependent effect | > 100 | 38.4 | 38.4 | 20 - 22 |
| COC(=O)O[C@H]1CC[C@]2(C)[C@H]3C[C@@H](O)[C@@H]4[C@@H]([C@@](C)(CCCC(C)(C)O)OC)CC[C@@]4(C)[C@]3(C)CC[C@H]2C1(C)C | 7.1 | 3.9 | Dose-dependent effect | > 100 | 18.6 | 18.6 |  |
| COC(=O)O[C@H]1CC[C@]2(C)[C@H]3C[C@@H](OC(=O)OC)[C@@H]4[C@@H](/C(C)=C/CCC(C)(C)OC(=O)OC)CC[C@@]4(C)[C@]3(C)CC[C@H]2C1(C)C | > 100 | 80.3 | Dose-dependent effect | > 100 |  |  |  |
| COC(=O)O[C@H]1CC[C@]2(C)[C@H]3C[C@@H](O)[C@@H]4[C@@H](/C(C)=C/CCC(C)(C)O)CC[C@@]4(C)[C@]3(C)CC[C@H]2C1(C)C | 15.9 | 10.9 | Dose-dependent effect | > 100 | 19.7 | 19.7 |  |
| CO[C@H]1CC[C@]2(C)[C@H]3C[C@@H](OC)[C@@H]4[C@@H]([C@@](C)(CCCC(C)(C)OC)OC)CC[C@@]4(C)[C@]3(C)CC[C@H]2C1(C)C | 21.8 | 18.7 | Dose-dependent effect | > 100 |  |  |  |
| CO[C@](C)(CCC=C(C)C)[C@H]1CC[C@]2(C)[C@@H]1[C@H](O)C[C@@H]1[C@@]3(C)CC[C@H](O)C(C)(C)[C@@H]3CC[C@]12C | 1.1 | 2.6 | Dose-dependent effect | > 100 | 20.6 | 20.6 | 20 - 22 |
| COC(=O)O[C@H]1CC[C@]2(C)[C@H]3C[C@@H](O)[C@@H]4[C@@H]([C@@](C)(CCCC(C)(C)OC(=O)OC)OC)CC[C@@]4(C)[C@]3(C)CC[C@H]2C1(C)C | 38.2 | 32.6 | Dose-dependent effect | > 100 |  |  |  |
| CC(C)(O)CCC[C@@](C)(O)[C@H]1CC[C@]2(C)[C@@H]1[C@H](O)C[C@@H]1[C@@]3(C)CC[C@H](O)C(C)(C)[C@@H]3CC[C@]12C | 46.4 | 57.9 |  | > 100 |  |  |  |
| COC(=O)O[C@H]1CC[C@]2(C)[C@H]3C[C@@H](O)[C@@H]4[C@@H]([C@](C)(O)CCCC(C)(C)O)CC[C@@]4(C)[C@]3(C)CC[C@H]2C1(C)C | 59.9 | 87.1 | Dose-dependent effect | > 100 |  |  |  |
| COC(=O)OC(C)(C)CCC[C@@](C)(O)[C@H]1CC[C@]2(C)[C@@H]1[C@H](O)C[C@@H]1[C@@]3(C)CC[C@H](O)C(C)(C)[C@@H]3CC[C@]12C | 26.9 | 27.2 | Dose-dependent effect | > 100 |  |  |  |
| COC(C)(C)CC/C=C(\C)[C@H]1CC[C@]2(C)[C@@H]1[C@H](O)C[C@@H]1[C@@]3(C)CC[C@H](O)C(C)(C)[C@@H]3CC[C@]12C | 1.3 | 3.2 | Dose-dependent effect | > 100 | 20.4 | 20.4 |  |
| O=c1[nH]cc(F)c(=O)[nH]1 [FLUOROURACIL] | 28.2 | 26.1 |  | 36.1 |  |  |  |
